Results published in paper PMC6328587 (Nature Communications, 2019).
Where two headings read alike, the source gives them in different places.

Columns and labels:
p38β = molecular target: T1, p38β (Homo sapiens, UniProt Q15759); assay: p38β degradation, western blot in MDA-MB-231 cells; type: cell-based; settings: concentrations up to 2.5 µM
T1 construct: endogenous in cells; host or cells: MDA-MB-231
Protocol: (§1) […] once with ice-cold PBS (1 × ), followed by lysis in buffer containing 25 mM Tris [pH 7.5], 0.25% sodium deoxycholate, 1% Triton X-100, supplemented with 1X protease inhibitor cocktail (Roche), and phosphatase inhibitors (10 mM NaF, 1 mM Na3VO4, and 20 mM β-glycerophosphate), unless otherwise noted. Lysates were spun at 14,000 × g for 10 min at 4 °C and supernatant was evaluated for protein content using a Pierce BCA Protein Assay (ThermoFisher Scientific). In all experiments, 25–50 μg of protein was loaded onto 10% SDS-PAGE gels or 4–20% Criterion TGX precast gradient gels (Bio-Rad), transferred to nitrocellulose membranes, and probed with the specified antibodies overnight at 4 °C in 1X TBS-Tween (Tris-buffered saline plus 0.02% Tween 20) containing 5% non-fat milk. Immunoblots were visualized using a Bio-Rad ChemiDoc imaging instrument and subsequently processed and quantified using the accompanying Bio-Rad ImageLab software. See Supplementary Figure 8 for uncropped scans of western blots shown in the main text figures.
(§2) Supplementary Figure 4 cont.
(§3) Supplementary Figure 4. Characterization of M APK fam ily degradation selectivity (related to Figures 1-2). (a) p38 M APK fam ily m em bers (α, β, δ, γ) were aligned using the T-Coffee multiple sequence alignm ent server. […] Note: JNK1 and JNK2 are expressed as two alternatively-spliced form s. […]

p38α = molecular target: T2, p38α (Homo sapiens, UniProt Q16539); assay: PROTAC-induced p38α degradation, western blot in MDA-MB-231 cells; type: cell-based
T2 construct: SJFα PROTAC (13-atom linker, amide attachment) selectively degrades p38α; endogenous in cells; host or cells: MDA-MB-231
T2 sequence (Q16539 whole entry): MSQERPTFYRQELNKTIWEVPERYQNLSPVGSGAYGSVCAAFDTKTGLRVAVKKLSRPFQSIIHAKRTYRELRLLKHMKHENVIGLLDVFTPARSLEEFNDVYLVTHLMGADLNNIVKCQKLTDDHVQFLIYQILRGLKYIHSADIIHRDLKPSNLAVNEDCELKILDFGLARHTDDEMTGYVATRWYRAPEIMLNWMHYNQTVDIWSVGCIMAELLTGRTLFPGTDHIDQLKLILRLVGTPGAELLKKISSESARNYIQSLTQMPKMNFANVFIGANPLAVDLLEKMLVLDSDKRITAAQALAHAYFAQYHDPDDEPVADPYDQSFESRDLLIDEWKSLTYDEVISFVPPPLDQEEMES
Protocol: MDA-MB-231 and HeLa cells were obtained from the American Type Culture Collection (ATCC), cultured in RPMI-1640 medium (1 × ) and Dulbecco’s modified Eagle’s medium (DMEM; 1 × ), respectively, containing 10% fetal bovine serum and 1% penicillin–streptomycin and grown in a humidified incubator at 37 °C and 5% CO2.
as §1
Western blot data in Figs. 2, 6, and Supplementary Figures 2, 3 were quantified by using the band feature in Image Lab (Bio-Rad). The p38 values were normalized to the α-tubulin signal to account for differences in protein load, and PROTAC-treated normalized values were expressed as a % of the vehicle-treated (no PROTAC) value, which itself was defined as 100% p38 protein level. […] The sigmoidal fit established both the full extent of degradation, or Dmax at the bottom asymptote of the curve, as well as the DC50, which is the inflection point at which 50% of the total degradation observed was reached.

endogenous p38δ = molecular target: T3, endogenous p38δ (Homo sapiens, UniProt O15264+P40337); assay: Ternary complex pull-down from MDA-MB-231 whole-cell lysate; type: binding
T3 construct: endogenous in cells; host or cells: MDA-MB-231 whole-cell lysate (p38δ); GST-VBC bait made in E. coli
T3 sequence (O15264 whole entry): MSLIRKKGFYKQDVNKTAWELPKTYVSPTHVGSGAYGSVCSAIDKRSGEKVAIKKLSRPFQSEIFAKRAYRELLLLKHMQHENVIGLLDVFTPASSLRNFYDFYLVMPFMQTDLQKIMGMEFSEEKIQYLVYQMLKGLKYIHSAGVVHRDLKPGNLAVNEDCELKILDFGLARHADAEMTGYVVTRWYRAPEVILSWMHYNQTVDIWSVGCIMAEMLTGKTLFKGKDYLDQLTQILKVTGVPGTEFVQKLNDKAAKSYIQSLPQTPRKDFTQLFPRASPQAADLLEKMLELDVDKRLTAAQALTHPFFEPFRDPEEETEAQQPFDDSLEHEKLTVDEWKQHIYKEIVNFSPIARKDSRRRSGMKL
T3 sequence (P40337 whole entry): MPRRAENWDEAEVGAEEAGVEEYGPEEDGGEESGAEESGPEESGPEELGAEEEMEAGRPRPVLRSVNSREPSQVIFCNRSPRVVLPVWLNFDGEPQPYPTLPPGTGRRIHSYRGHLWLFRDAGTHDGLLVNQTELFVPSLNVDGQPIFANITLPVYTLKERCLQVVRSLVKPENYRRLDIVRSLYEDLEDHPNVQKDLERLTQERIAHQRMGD
T3 sequence (Q15370 whole entry partner): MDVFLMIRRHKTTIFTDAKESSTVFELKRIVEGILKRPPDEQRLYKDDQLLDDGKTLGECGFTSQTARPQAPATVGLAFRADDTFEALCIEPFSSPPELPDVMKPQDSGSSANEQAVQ
T3 sequence (Q15369 whole entry partner): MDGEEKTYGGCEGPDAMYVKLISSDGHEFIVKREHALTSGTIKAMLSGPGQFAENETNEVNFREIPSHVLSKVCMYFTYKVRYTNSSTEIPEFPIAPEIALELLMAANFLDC
Protocol: Glutathione Sepharose 4B (Glutathione-conjugated beads in a slurry containing 20% ethanol) were washed twice with 1X wash buffer (50 mM HEPES pH 7.5, 150 mM NaCl, 1 mM DTT, 0.01% NP40, 5 mM MgCl2, 10% Glycerol) and then blocked for 1 h at room temperature with 10% bovine serum albumin (BSA) in wash buffer. The beads were then washed again three times with wash buffer and then purified GST-VBC (stable form of VHL complexed with EloB/EloC, described above) was immobilized for 1 h at 4 °C at 3.6 pmole µL^–1 of beads. The beads were then washed three times with wash buffer, resuspended, divided into two equal volumes, and p38α or p38δ protein was added. The bead:p38 mixture was then aliquoted to separate tubes and PROTAC was added at the indicated concentration (PROTACs were intermediately diluted in 10% DMSO and 0.25% CHAPS). This mixture was incubated at 4 °C for 2 h. The beads were washed three times with 10 column volumes of wash buffer and then eluted with SDS loading buffer at 75 °C for 10 min.
For experiments in which the input substrate is a WCL (Fig. 4b), the sample was prepared as follows. Five 150 mm dishes of confluent MDA-MB-231 cells were washed with 1X PBS, pH 7.4, and then dissociated using enzyme-free PBS-based cell dissociation buffer (ThermoFisher Scientific) for 10 min at 37 °C. […]

p38γ = molecular target: T4, p38γ (Homo sapiens, UniProt P53778); assay: p38γ degradation, western blot in MDA-MB-231 cells; type: cell-based; settings: concentrations up to 2.5 µM
T4 construct: endogenous in cells; host or cells: MDA-MB-231
T4 sequence (P53778 1-367): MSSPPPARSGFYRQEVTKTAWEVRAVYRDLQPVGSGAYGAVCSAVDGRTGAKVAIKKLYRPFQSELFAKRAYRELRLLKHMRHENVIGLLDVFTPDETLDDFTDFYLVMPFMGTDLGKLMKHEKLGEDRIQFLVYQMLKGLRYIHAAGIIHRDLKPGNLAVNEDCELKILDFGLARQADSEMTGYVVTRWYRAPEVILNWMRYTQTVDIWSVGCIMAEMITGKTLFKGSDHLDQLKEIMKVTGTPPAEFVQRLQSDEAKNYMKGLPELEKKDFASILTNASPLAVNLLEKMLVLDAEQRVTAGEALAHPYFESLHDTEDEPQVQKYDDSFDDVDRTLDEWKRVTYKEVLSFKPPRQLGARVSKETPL
Protocol: as §1, §2, §3

ERK1 = molecular target: T5, ERK1 (Homo sapiens, UniProt P27361); assay: ERK1 degradation, western blot in MDA-MB-231 cells; type: cell-based; settings: 0.025-2.5 µM
T5 construct: endogenous in cells; host or cells: MDA-MB-231
T5 sequence (P27361 whole entry): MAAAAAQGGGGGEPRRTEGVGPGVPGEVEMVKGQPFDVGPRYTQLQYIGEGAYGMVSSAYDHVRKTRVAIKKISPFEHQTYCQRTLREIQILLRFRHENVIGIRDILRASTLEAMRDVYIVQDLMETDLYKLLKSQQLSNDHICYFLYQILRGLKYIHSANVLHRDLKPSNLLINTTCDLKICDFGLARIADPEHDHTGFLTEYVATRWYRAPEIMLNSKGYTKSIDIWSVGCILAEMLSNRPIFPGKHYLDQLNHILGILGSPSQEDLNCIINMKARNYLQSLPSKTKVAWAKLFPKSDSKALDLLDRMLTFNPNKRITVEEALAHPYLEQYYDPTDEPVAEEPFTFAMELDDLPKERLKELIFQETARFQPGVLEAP
Protocol: as §1, §2, §3

[1] = 0.025-5.0 µM survey, biological duplicates, ± one s.d., Supplementary Table 1
[2] = 0.025-5.0 µM survey, ± one s.d., Supplementary Table 1, read-out: Dmax p38α (maximum percentage of degradation)

T1 sequence (Q15759 whole entry): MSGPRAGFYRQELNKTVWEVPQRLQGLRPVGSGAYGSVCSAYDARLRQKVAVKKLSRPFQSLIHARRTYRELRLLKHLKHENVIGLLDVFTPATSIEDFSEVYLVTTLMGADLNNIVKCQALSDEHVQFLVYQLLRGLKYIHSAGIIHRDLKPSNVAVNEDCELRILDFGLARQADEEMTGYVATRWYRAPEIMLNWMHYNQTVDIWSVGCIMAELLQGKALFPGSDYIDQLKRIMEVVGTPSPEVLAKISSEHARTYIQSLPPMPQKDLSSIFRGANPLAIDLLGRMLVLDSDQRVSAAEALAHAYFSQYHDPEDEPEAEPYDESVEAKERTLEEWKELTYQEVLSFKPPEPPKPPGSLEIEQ

| p38β degradation (p38β) | p38α downregulation after pre-treatment with 1 µM epoxomicin or 1 µM MLN4924 (p38α; 250 nM PROTAC, 6 h) | DC50 (p38α; [1]) [nM] | Dmax (p38α; [2]) [%] | hook effect in p38α degradation (p38α; up to 100 µM) | DC50 (p38α; wider dose response 1 nM-100 µM, Supplementary Figure 3) [nM] | Dmax (p38α; wider dose response 1 nM-100 µM, Supplementary Figure 3, read-out: Dmax p38α) [%] | p38γ degradation (p38γ) | ERK1 degradation (ERK1) | p38α degradation (in words) (p38α) | Compound | enrichment of endogenous p38δ on GST-VBC bait (endogenous p38δ) |
| --- | --- | --- | --- | --- | --- | --- | --- | --- | --- | --- | --- |
| does not degrade | completely rescued | 9.5 ± 1 | 99.6 ± 1.1 | no hook effect | 7.16 ± 1.03 | 97.4 | does not degrade | neither PROTAC degrades | – | COc1cc2c(Oc3ccc(NC(=O)C4(C(=O)Nc5ccc(F)cc5)CC4)cc3F)ccnc2cc1OCCCCOCCCCOCC(=O)N[C@H](C(=O)N1C[C@H](O)C[C@H]1C(=O)NCc1ccc(-c2scnc2C)cc1)C(C)(C)C [SJFα] | stable ternary complex formation was greatly reduced |
| does not degrade | – | 45.9 ± 81.3 | 34.5 ± 10.1 | – | – | – | does not degrade | neither PROTAC degrades | does not degrade | COc1cc2c(Oc3ccc(NC(=O)C4(C(=O)Nc5ccc(F)cc5)CC4)cc3F)ccnc2cc1OCCOCCOCCOc1cc(-c2scnc2C)ccc1CNC(=O)[C@@H]1C[C@@H](O)CN1C(=O)[C@H](C(C)C)N1Cc2ccccc2C1=O [SJFδ] | strongly enriches for endogenous p38δ |
